Patent US20210255205A1, “COMPOSITIONS AND METHODS FOR TREATING METABOLIC DISEASE” (THE REGENTS OF THE UNIVERSITY OF CALIFORNIA, priority 2018, published 2021)

Tests used:
[1] = molecular target: T1, Aster-B GRAM domain (Mus musculus, UniProt Q80TI0); test: liposome co-sedimentation assay; format: binding; settings: sucrose-loaded heavy liposomes, 80-85% PC or PS
T1 construct: B GRAM (Aster-B1-337) was conducted using PIP Strips (Echelon Biosciences); made in house; host or cells: Sf9 insect cells
T1 sequence (Q80TI0 41-377 limits assumed): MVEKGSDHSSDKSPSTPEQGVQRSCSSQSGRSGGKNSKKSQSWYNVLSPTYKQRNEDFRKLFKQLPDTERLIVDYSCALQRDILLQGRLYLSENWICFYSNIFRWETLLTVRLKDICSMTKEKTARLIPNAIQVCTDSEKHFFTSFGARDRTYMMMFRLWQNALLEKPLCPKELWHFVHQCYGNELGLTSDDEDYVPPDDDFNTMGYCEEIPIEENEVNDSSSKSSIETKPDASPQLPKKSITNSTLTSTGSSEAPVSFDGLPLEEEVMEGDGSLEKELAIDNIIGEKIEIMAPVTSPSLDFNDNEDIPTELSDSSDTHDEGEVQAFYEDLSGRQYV
Method: FIG. 9A: Protein-lipid overlay over purified mouse Aster-B GRAM domain with various phospholipid species. PA and PS correspond to phosphatidic acid and phosphatidylserine, respectively. FIG. 9A discloses “6xHis” as SEQ ID NO: 11. FIG. 9B: Purified Aster-B GRAM domain was incubated with sucrose-loaded heavy liposomes containing Dansyl-PE and 80-85% PC or 80-85% PS+/−5% Cholesterol. Liposomes were sedimented, washed, and analyzed by immunoblotting for associated Aster-B Gram protein (anti-His antibody). FIG. 9C: Localization of full-length and B ΔGRAM Aster-B-GFP constructs with plasma membrane (CellMask stain) expressed in HeLa cells in the presence or absence of cholesterol loading imaged by live cell confocal microscopy. […] FIG. 9E: Quantification of Aster-B PH-EGFP intensity in the TIRF plane upon cholesterol loading (left panel; n=2-3 cells, error bars+/−SD). […] TIRF videos recorded 5 slices (slices 3-5 were used to calculate FO) before cholesterol addition.
(§1) The Aster proteins contain an N-terminal GRAM domain, a structural motif related to the pleckstrin homology domain that is found in glucosyltransferases, Rab-like GTPase activators, myotubularins, and other membrane-associated proteins. […] Given that phosphatidylserine is highly enriched in the inner leaflet of the PM, it was further determined if the Aster-B GRAM domain was associated with phosphatidylserine-containing liposomes.

[2] = molecular target: T1, Aster-B GRAM domain; test: protein-lipid overlay (PIP Strips); format: binding; settings: lipid strip, 100 pmol lipid per spot
Method: FIG. 9A: Protein-lipid overlay over purified mouse Aster-B GRAM domain with various phospholipid species. PA and PS correspond to phosphatidic acid and phosphatidylserine, respectively. FIG. 9A discloses “6xHis” as SEQ ID NO: 11. FIG. 9B: Purified Aster-B GRAM domain was incubated with sucrose-loaded heavy liposomes containing Dansyl-PE and 80-85% PC or 80-85% PS+/−5% Cholesterol. Liposomes were sedimented, washed, and analyzed by immunoblotting for associated Aster-B Gram protein (anti-His antibody). FIG. 9C: Localization of full-length and B ΔGRAM Aster-B-GFP constructs with plasma membrane (CellMask stain) expressed in HeLa cells in the presence or absence of cholesterol loading imaged by live cell confocal microscopy. […] FIG. 9E: Quantification of Aster-B PH-EGFP intensity in the TIRF plane upon cholesterol loading (left panel; n=2-3 cells, error bars+/−SD). […] TIRF videos recorded 5 slices (slices 3-5 were used to calculate FO) before cholesterol addition. […]
as §1

## phosphatidylserine [phosphatidylserine (PS)]
[1]
  co-sedimentation of GRAM domain with liposomes: pelleted with
[2]
  interaction with purified Aster-B GRAM domain: interacted strongly
